Test results: US6352958B1, “Cycloimido-substituted benzofused heterocyclic herbicides” (FMC Corporation, priority 1997, dated 2002)

Experiments:
Type in all cases: in vivo
[1] = test system: velvetleaf (Abutilon theophrasti); assay: Preemergence herbicidal activity, velvetleaf; details: Abutilon theophrasti, pre-emergence, Rate of Application 0.3 Kg/Ha, examined after 12-17 days, read-out: PREEMERGENCE HERBICIDAL ACTIVITY (% CONTROL) ABUTH
[2] = test system: blackgrass (Aloepecurus myosuroides); assay: Postemergence herbicidal activity, blackgrass; details: Alopecurus myosuroides, post-emergence, rate of application 0.3 Kg/Ha, rated after 12-17 days, read-out: Postemergence herbicidal activity (% control) ALOMY
[3] = test system: green foxtail (Setaria viridis); assay: Postemergence herbicidal activity, green foxtail; details: Setaria viridis, post-emergence, rate of application 0.3 Kg/Ha, rated after 12-17 days, read-out: Postemergence herbicidal activity (% control) SETVI
[4] = test system: wheat (Triticum aestivum var. Lew); assay: Postemergence herbicidal activity, wheat; details: Triticum aestivum, post-emergence, rate of application 0.3 Kg/Ha, rated after 12-17 days, read-out: Postemergence herbicidal activity (% control) WHT
[5] = test system: blackgrass (Aloepecurus myosuroides); assay: Preemergence herbicidal activity, blackgrass; details: Alopecurus myosuroides, pre-emergence, Rate of Application 0.3 Kg/Ha, examined after 12-17 days, read-out: PREEMERGENCE HERBICIDAL ACTIVITY (% CONTROL) ALOMY
[6] = test system: wheat (Triticum aestivum var. Lew); assay: Preemergence herbicidal activity, wheat; details: Triticum aestivum, pre-emergence, Rate of Application 0.3 Kg/Ha, examined after 12-17 days, read-out: PREEMERGENCE HERBICIDAL ACTIVITY (% CONTROL) WHT
[7] = test system: Johnsongrass (Sorghum halepense); assay: Postemergence herbicidal activity, johnsongrass; details: Sorghum halepense, post-emergence, rate of application 0.3 Kg/Ha, rated after 12-17 days, read-out: Postemergence herbicidal activity (% control) SORHA
[8] = test system: morningglory (Ipomea lacunosa or Ipomea hederacea); assay: Postemergence herbicidal activity, morningglory; details: Ipomoea, post-emergence, rate of application 0.3 Kg/Ha, rated after 12-17 days, read-out: Postemergence herbicidal activity (% control) IPOSS
[9] = test system: green foxtail (Setaria viridis); assay: Preemergence herbicidal activity, green foxtail; details: Setaria viridis, pre-emergence, Rate of Application 0.3 Kg/Ha, examined after 12-17 days, read-out: PREEMERGENCE HERBICIDAL ACTIVITY (% CONTROL) SETVI
[10] = test system: field corn (Zea mays var. Pioneer 3732); assay: Preemergence herbicidal activity, corn; details: Zea mays, pre-emergence, Rate of Application 0.3 Kg/Ha, examined after 12-17 days, read-out: PREEMERGENCE HERBICIDAL ACTIVITY (% CONTROL) CRN
[11] = test system: morningglory (Ipomea lacunosa or Ipomea hederacea); assay: Preemergence herbicidal activity, morningglory; details: Ipomoea, pre-emergence, Rate of Application 0.3 Kg/Ha, examined after 12-17 days, read-out: PREEMERGENCE HERBICIDAL ACTIVITY (% CONTROL) IPOSS
[12] = test system: common chickweed (Stellaria media); assay: Postemergence herbicidal activity, chickweed; details: Stellaria media, post-emergence, rate of application 0.3 Kg/Ha, rated after 12-17 days, read-out: Postemergence herbicidal activity (% control) STEME
[13] = test system: common chickweed (Stellaria media); assay: Preemergence herbicidal activity, chickweed; details: Stellaria media, pre-emergence, Rate of Application 0.3 Kg/Ha, examined after 12-17 days, read-out: PREEMERGENCE HERBICIDAL ACTIVITY (% CONTROL) STEME
[14] = test system: Johnsongrass (Sorghum halepense); assay: Preemergence herbicidal activity, johnsongrass; details: Sorghum halepense, pre-emergence, Rate of Application 0.3 Kg/Ha, examined after 12-17 days, read-out: PREEMERGENCE HERBICIDAL ACTIVITY (% CONTROL) SORHA

Row | Compound | inhibition at 300 g/ha [1] | inhibition at 300 g/ha [2] | inhibition at 300 g/ha [3] | inhibition at 300 g/ha [4] | inhibition at 300 g/ha [5] | inhibition at 300 g/ha [6] | inhibition at 300 g/ha [7] | inhibition at 300 g/ha [8] | inhibition at 300 g/ha [9] | inhibition at 300 g/ha [10] | inhibition at 300 g/ha [11] | inhibition at 300 g/ha [12] | inhibition at 300 g/ha [13] | inhibition at 300 g/ha [14]
1 | CC(C)c1nc2c(-n3c(=O)cc(C(F)(F)F)n(C)c3=O)c(F)cc(Cl)c2o1 [Compound 28, 1-METHYL-6-TRIFLUOROMETHYL-3-[7-CHLORO-5-FLUORO-2-(1-METHYLETHYL)BENZOXAZOL4-YL]-2,4(1H,3H)-PYRIMIDINEDIONE] | 100% | 100% | 100% | 80% | 100% | 100% | 95% | 100% | 100% | 95% | 100% | 100% | 100% | 100%
2 | CCc1nc2c(-n3c(=O)cc(C(F)(F)F)n(C)c3=O)c(F)cc(Cl)c2[nH]1 [Compound 367, 3-(4-CHLORO-2-ETHYL-6-FLUOROBENZIMIDAZOL-7-YL)-1-METHYL-6-TRIFLUOROMETHYL-2,4(1H,3H)-PYRIMIDINEDIONE] | 100% | 100% | 100% | 100% | 90% | 95% | 100% | 100% | 100% | 100% | 100% | 100% | 100% | 100%
3 | Cn1c(C(F)(F)F)cc(=O)n(-c2c(F)cc(Cl)c3[nH]c(C(F)(F)F)cc23)c1=O [Compound 500, 3-(7-CHLORO-5-FLUORO-2-TRIFLUOROMETHYLINDOL-4-YL)-1-METHYL-6-TRIFLUOROMETHYL-2,4(1H,3H)-PYRIMIDINEDIONE] | 100% | 80% | 100% | 65% | 75% | 75% | 100% | 100% | 100% | 90% | 100% | 90% | 100% | 100%
